Experimental data: US20070049564A1 (Wyeth, priority 2005, published 2007)
Converted amounts (≈) assume the structure as drawn. Read-outs that look alike come from different tables or passages of the source.

What was measured:
S. agalactiae GC 4564 = assay: MIC, broth microdilution; details: Streptococcus agalactiae
E. coli GC 4559 = assay: MIC, broth microdilution; details: Escherichia coli
E. coli GC 3226 = assay: MIC, broth microdilution; details: Escherichia coli
E. coli = assay: Range of MIC for E. coli strains; details: Escherichia coli
S. aureus GC 6469 = assay: MIC, broth microdilution; details: Staphylococcus aureus
S. aureus GC 2216 = assay: MIC, broth microdilution; details: Staphylococcus aureus
S. pyogenes GC 4563 = assay: MIC, broth microdilution; details: Streptococcus pyogenes
P. aeruginosa GC 2214 = assay: MIC, broth microdilution; details: Pseudomonas aeruginosa
E. faecalis GC 2242 = assay: MIC, broth microdilution; details: Enterococcus faecalis
E. faecalis GC 2265 = assay: MIC, broth microdilution; details: Enterococcus faecalis
E. coli GC 2270 = assay: MIC, broth microdilution; details: Escherichia coli
S. aureus GC 4536 = assay: MIC, broth microdilution; details: Staphylococcus aureus
E. coli GC 1073 = assay: MIC, broth microdilution; details: Escherichia coli
E. coli GC 2271 = assay: MIC, broth microdilution; details: Escherichia coli
E. coli GC 2232 = assay: MIC, broth microdilution; details: Escherichia coli
S. pneumoniae+ GC 4465 = assay: MIC, broth microdilution; details: Streptococcus pneumoniae
E. faecium GC 2243 = assay: MIC, broth microdilution; details: Enterococcus faecium
S. aureus GC 6335 = assay: MIC, broth microdilution; details: Staphylococcus aureus
c. albicans GC 3066 = assay: MIC, broth microdilution

`CCCCOC(=O)N(CC(=O)Nc1cc(N(C)C)c2c(c1O)C(=O)C1=C(O)[C@]3(O)C(=O)C(C(N)=O)=C(O)[C@@H](N(C)C)[C@@H]3C[C@@H]1C2)C(C)(C)C` [Example 58, butyl 2-{[(5aR,6aS,7S,10aS)-9-(aminocarbonyl)-4,7-bis(dimethylamino)-1,8,10a,11-tetrahydroxy-10,12-dioxo-5,5a,6,6a,7,10,10a,12-octahydrotetracen-2-yl]amino}-2-oxoethyl(tert-butyl)carbamate] gave an MIC (S. agalactiae GC 4564; GC4564, read-out: MINIMAL INHIBITORY CONCENTRATION MIC, Human Serum) of 16 µg/mL (≈ 23.3 µM), an MIC (S. agalactiae GC 4564; GC4564, read-out: MINIMAL INHIBITORY CONCENTRATION MIC, Mouse Serum) of 8 µg/mL (≈ 11.7 µM) and an MIC (S. agalactiae GC 4564; GC4564, read-out: MINIMAL INHIBITORY CONCENTRATION MIC, Water) of 8 µg/mL (≈ 11.7 µM). For the same compound, the MIC (E. coli GC 4559; GC4559, read-out: MINIMAL INHIBITORY CONCENTRATION MIC, Human Serum) was > 64 µg/mL, the MIC (E. coli GC 4559; GC4559, read-out: MINIMAL INHIBITORY CONCENTRATION MIC, Mouse Serum) was > 64 µg/mL and the MIC (E. coli GC 4559; GC4559, read-out: MINIMAL INHIBITORY CONCENTRATION MIC, Water) was > 64 µg/mL. The MIC (E. coli GC 3226; GC3226, read-out: MINIMAL INHIBITORY CONCENTRATION MIC, Human Serum) was > 64 µg/mL, the MIC (E. coli GC 3226; GC3226, read-out: MINIMAL INHIBITORY CONCENTRATION MIC, Mouse Serum) was > 64 µg/mL and the MIC (E. coli GC 3226; GC3226, read-out: MINIMAL INHIBITORY CONCENTRATION MIC, Water) was > 64 µg/mL. For the same compound, the MIC (E. coli; 20 h, read-out: Range of MIC, E. coli (Mouse Serum)) was > 64 µg/mL, the MIC (E. coli; read-out: Minimum inhibitory concentration (MIC), E. coli (Human Serum)) was > 64 µg/mL and the MIC (E. coli; read-out: Minimum inhibitory concentration (MIC), E. coli (water)) was > 64 µg/mL. For the same compound, the MIC (E. coli; read-out: Range of MIC, E. coli (Water)) was > 64 µg/mL, the MIC (S. aureus GC 6469; GC6469, read-out: MINIMAL INHIBITORY CONCENTRATION MIC, Human Serum) was 4 µg/mL (≈ 5.83 µM) and the MIC (S. aureus GC 6469; GC6469, read-out: MINIMAL INHIBITORY CONCENTRATION MIC, Mouse Serum) was 2 µg/mL (≈ 2.92 µM). It also gave an MIC (S. aureus GC 6469; GC6469, read-out: MINIMAL INHIBITORY CONCENTRATION MIC, Water) of 4 µg/mL (≈ 5.83 µM), an MIC (S. aureus GC 2216; GC2216, read-out: MINIMAL INHIBITORY CONCENTRATION MIC, Human Serum) of 4 µg/mL (≈ 5.83 µM) and an MIC (S. aureus GC 2216; GC2216, read-out: MINIMAL INHIBITORY CONCENTRATION MIC, Mouse Serum) of 2 µg/mL (≈ 2.92 µM). It also gave an MIC (S. aureus GC 2216; GC2216, read-out: MINIMAL INHIBITORY CONCENTRATION MIC, Water) of 4 µg/mL (≈ 5.83 µM), an MIC (S. pyogenes GC 4563; GC4563, read-out: MINIMAL INHIBITORY CONCENTRATION MIC, Human Serum) of 4 µg/mL (≈ 5.83 µM) and an MIC (S. pyogenes GC 4563; GC4563, read-out: MINIMAL INHIBITORY CONCENTRATION MIC, Mouse Serum) of 4 µg/mL (≈ 5.83 µM). The MIC (S. pyogenes GC 4563; GC4563, read-out: MINIMAL INHIBITORY CONCENTRATION MIC, Water) was 4 µg/mL (≈ 5.83 µM), the MIC (P. aeruginosa GC 2214; GC2214, read-out: MINIMAL INHIBITORY CONCENTRATION MIC, Human Serum) was > 64 µg/mL and the MIC (P. aeruginosa GC 2214; GC2214, read-out: MINIMAL INHIBITORY CONCENTRATION MIC, Mouse Serum) was > 64 µg/mL. The MIC (P. aeruginosa GC 2214; GC2214, read-out: MINIMAL INHIBITORY CONCENTRATION MIC, Water) was > 64 µg/mL, the MIC (E. faecalis GC 2242; GC2242, read-out: MINIMAL INHIBITORY CONCENTRATION MIC, Human Serum) was 4 µg/mL (≈ 5.83 µM) and the MIC (E. faecalis GC 2242; GC2242, read-out: MINIMAL INHIBITORY CONCENTRATION MIC, Mouse Serum) was 2 µg/mL (≈ 2.92 µM). It also gave an MIC (E. faecalis GC 2242; GC2242, read-out: MINIMAL INHIBITORY CONCENTRATION MIC, Water) of 4 µg/mL (≈ 5.83 µM), an MIC (E. faecalis GC 2265; GC2265, read-out: MINIMAL INHIBITORY CONCENTRATION MIC, Human Serum) of 4 µg/mL (≈ 5.83 µM) and an MIC (E. faecalis GC 2265; GC2265, read-out: MINIMAL INHIBITORY CONCENTRATION MIC, Mouse Serum) of 4 µg/mL (≈ 5.83 µM). The MIC (E. faecalis GC 2265; GC2265, read-out: MINIMAL INHIBITORY CONCENTRATION MIC, Water) was 4 µg/mL (≈ 5.83 µM), the MIC (E. coli GC 2270; GC2270, read-out: MINIMAL INHIBITORY CONCENTRATION MIC, Human Serum) was > 64 µg/mL and the MIC (E. coli GC 2270; GC2270, read-out: MINIMAL INHIBITORY CONCENTRATION MIC, Mouse Serum) was > 64 µg/mL. For the same compound, the MIC (E. coli GC 2270; GC2270, read-out: MINIMAL INHIBITORY CONCENTRATION MIC, Water) was > 64 µg/mL, the MIC (S. aureus GC 4536; GC4536, read-out: MINIMAL INHIBITORY CONCENTRATION MIC, Human Serum) was 4 µg/mL (≈ 5.83 µM) and the MIC (S. aureus GC 4536; GC4536, read-out: MINIMAL INHIBITORY CONCENTRATION MIC, Mouse Serum) was 2 µg/mL (≈ 2.92 µM). The MIC (S. aureus GC 4536; GC4536, read-out: MINIMAL INHIBITORY CONCENTRATION MIC, Water) was 4 µg/mL (≈ 5.83 µM), the MIC (E. coli GC 1073; GC1073, read-out: MINIMAL INHIBITORY CONCENTRATION MIC, Human Serum) was > 64 µg/mL and the MIC (E. coli GC 1073; GC1073, read-out: MINIMAL INHIBITORY CONCENTRATION MIC, Mouse Serum) was > 64 µg/mL. For the same compound, the MIC (E. coli GC 1073; GC1073, read-out: MINIMAL INHIBITORY CONCENTRATION MIC, Water) was > 64 µg/mL, the MIC (E. coli GC 2271; GC2271, read-out: MINIMAL INHIBITORY CONCENTRATION MIC, Human Serum) was > 64 µg/mL and the MIC (E. coli GC 2271; GC2271, read-out: MINIMAL INHIBITORY CONCENTRATION MIC, Mouse Serum) was > 64 µg/mL. The MIC (E. coli GC 2271; GC2271, read-out: MINIMAL INHIBITORY CONCENTRATION MIC, Water) was > 64 µg/mL, the MIC (E. coli GC 2232; GC2232, read-out: MINIMAL INHIBITORY CONCENTRATION MIC, Human Serum) was > 64 µg/mL and the MIC (E. coli GC 2232; GC2232, read-out: MINIMAL INHIBITORY CONCENTRATION MIC, Mouse Serum) was > 64 µg/mL. The MIC (E. coli GC 2232; GC2232, read-out: MINIMAL INHIBITORY CONCENTRATION MIC, Water) was > 64 µg/mL, the MIC (S. pneumoniae+ GC 4465; read-out: MINIMAL INHIBITORY CONCENTRATION MIC, Human Serum) was 4 µg/mL (≈ 5.83 µM) and the MIC (S. pneumoniae+ GC 4465; read-out: MINIMAL INHIBITORY CONCENTRATION MIC, Mouse Serum) was 4 µg/mL (≈ 5.83 µM). The MIC (S. pneumoniae+ GC 4465; read-out: MINIMAL INHIBITORY CONCENTRATION MIC, Water) was 8 µg/mL (≈ 11.7 µM), the MIC (E. faecium GC 2243; GC2243, read-out: MINIMAL INHIBITORY CONCENTRATION MIC, Human Serum) was 4 µg/mL (≈ 5.83 µM) and the MIC (E. faecium GC 2243; GC2243, read-out: MINIMAL INHIBITORY CONCENTRATION MIC, Mouse Serum) was 2 µg/mL (≈ 2.92 µM). The MIC (E. faecium GC 2243; GC2243, read-out: MINIMAL INHIBITORY CONCENTRATION MIC, Water) was 4 µg/mL (≈ 5.83 µM), the MIC (S. aureus GC 6335; GC6335, read-out: MINIMAL INHIBITORY CONCENTRATION MIC, Human Serum) was 4 µg/mL (≈ 5.83 µM) and the MIC (S. aureus GC 6335; GC6335, read-out: MINIMAL INHIBITORY CONCENTRATION MIC, Mouse Serum) was 4 µg/mL (≈ 5.83 µM). The MIC (S. aureus GC 6335; GC6335, read-out: MINIMAL INHIBITORY CONCENTRATION MIC, Water) was 4 µg/mL (≈ 5.83 µM), the MIC (c. albicans GC 3066; Candida albicans, GC3066, read-out: MINIMAL INHIBITORY CONCENTRATION MIC) was > 64 µg/mL and the “MINIMAL INHIBITORY CONCENTRATION MIC” value (c. albicans GC 3066; Human Serum) was >64 UG/ML. The “MINIMAL INHIBITORY CONCENTRATION MIC” value (c. albicans GC 3066; Mouse Serum) was >64 UG/ML.
